# Key:
# plasmid DNA = conditions: 100 nM
# Description: In vitro Bleomycin cleavage of DNA plasmid. […] Another equivalent of (NH4)2Fe(SO4)2.6H2O was added after 30 min and 60 min respectively. The mixture was loaded on 1% agarose with 6× loading dye and stained with ethidium bromide. Bands were quantified using ImageJ image analysis software.
# [1] = molecular target: bulges 5′G_U/3′CUA, 5′GGU/3′C_A and 5′GAU/3′C_A; conditions: previous study, cited from earlier work
# pri-miR-17-92 cluster [2] = experiment: RT-qPCR of pri-, pre- and mature miRNAs in MDA-MB-231 cells; type: cell-based, human
# Description: Absolute quantification of pri-, pre-, and mature miRNAs. Transcripts of pre-miR-17, pre-miR-18a, and the corresponding 5p mature sequences were transcribed in vitro and purified as described above. Precursor miRNAs (1×10^14 copies) were reverse transcribed using QScript RT (Quanta bio) in a total volume of 40 μL. Mature miRNAs (1×10^14 copies) were reverse transcribed using the miScript II RT Kit (Qiagen) in a total volume of 40 μL reaction. Serial dilutions of the RT reactions (1:10) were used to create a standard curve of copy number versus Ct which was used to calculate copy numbers of each transcript in DU-145 and MDA-MB-231 cells.
# pri-miR-17-92 cluster [3] = experiment: RT-qPCR of pri-, pre- and mature miRNAs in DU-145 cells; type: cell-based, human; conditions: DU-145, treatment with 7
# Description: RT-qPCR in DU145, MDA-MB-231, and WT-9-12 cells. DU145 cells were seeded into 12-well plates at ˜50% confluency (≈200,000 cells/well) and allowed to adhere for 12 h. After adhering, the cells were treated with compounds 2, 5, 6, or 7 (10, 100, and 500 nM) for 24 h. Total RNA was then harvested using a Zymo-Quick RNA Mini prep kit (Zymo Research) with DNase treatment according in the manufacturers protocol. Reverse transcription (RT) for mature miRNAs was done using the miScript II RT kit (Qiagen) with 200 ng of total RNA. To measure precursor and mRNA levels, RT was done using qScript (Quanta Bio) according to the manufacturers protocol on 1000 ng of total RNA. RT-qPCR was carried out on an Applied Biosystems 7900HT cycler under standard conditions (2 step PCR; 60° C. annealing/elongation, 95° C. melt) using the Power Sybr Master Mix (Applied Biosystems). […] Total RNA was extracted in a similar manner and subjected to RT-qPCR as described above. RT for precursor and mRNAs in MDA-MB-231 cells was done using the High Flex buffer in the miScript II RT kit.
# Absolute quantification of pri-, pre-, and mature miRNAs. Transcripts of pre-miR-17, pre-miR-18a, and the corresponding 5p mature sequences were transcribed in vitro and purified as described above. Precursor miRNAs (1×10^14 copies) were reverse transcribed using QScript RT (Quanta bio) in a total volume of 40 μL. […]
# Cellular uptake analysis = type: in vitro ADME, human; conditions: 5 μM, 24 h, DU-145 and MDA-MB-231
# Description: Cellular uptake analysis. DU145 and MDA-MB-231 cells were seeded into a 96-well white clear bottom plate at 10,000 cells/well and allowed to adhere overnight. Once adhered, the cells were grown to ˜50% confluency and then treated with 2, 5, or 7 at 5 μM for 24 h while also leaving untreated wells for generation of a standard curve. This concentration was chosen to allow for adequate signal above noise. After 24 h, cells were lysed in 100 μL of RNA lysis buffer (Zymo Research) for 5 min. Compound 2, 5, or 7 were spiked into untreated samples at 100, 10, 1, 0.1, and 0.01 nM to create a standard curve of compound fluorescence. Using a Biotek FLX-800 fluorescence plate reader (excitation: 360/340; emission 460/440; sensitivity=90) the fluorescence of 2, 5, and 7 was measured. Concentrations were determined by extrapolating from the standard curves mentioned above.
smiles,measurement,setting,value
Cc1c(N)nc([C@H](CC(N)=O)NC[C@H](N)C(N)=O)nc1C(=O)N[C@H](C(=O)N[C@H](C)[C@@H](O)[C@H](C)C(=O)N[C@H](C(=O)NCCc1nc(-c2nc(C(=O)NCCCNCCCCN)cs2)cs1)[C@@H](C)O)[C@@H](O[C@@H]1O[C@@H](CO)[C@@H](O)[C@H](O)[C@@H]1O[C@@H]1O[C@H](CO)[C@@H](O)[C@H](OC(N)=O)[C@@H]1O)c1cnc[nH]1 [Bleomycin A5],cleavage of plasmid DNA,plasmid DNA,significantly cleaved DNA
CN1CCN(c2ccc(-c3ccc4nc(-c5cc(C(C)(C)C)c(OCCCC(=O)NCCCN=[N+]=[N-])c(C(C)(C)C)c5)[nH]c4c3)cc2)CC1 [Compound 1],Kd,"[1]; bulges of pre-miR-17, -18a, -20a, read-out: Kd's of 1 for the three bulges",30 to 40 µM
same,binding of 1 to RNAs with bulges mutated to GC or AU base pairs,[1],No binding was observed
CCCN(CC(=O)N(CCC)CC(=O)N(CCC)CC(=O)N(CC(=O)NCCOCCOCCOCCOc1ccc(/C=C2\SC(Nc3ccccc3)=C(C(=O)OCC)C2=O)cc1O)Cc1cn(CCCNC(=O)CCCOc2c(C(C)(C)C)cc(-c3nc4cc(-c5ccc(N6CCN(C)CC6)cc5)ccc4[nH]3)cc2C(C)(C)C)nn1)C(=O)CN(Cc1cn(CCCNC(=O)CCCOc2c(C(C)(C)C)cc(-c3nc4cc(-c5ccc(N6CCN(C)CC6)cc5)ccc4[nH]3)cc2C(C)(C)C)nn1)C(C)=O [Compound 7],decrease of pre-miR-17 levels,"pri-miR-17-92 cluster [2]; MDA-MB-231, 7 at 500 nM",31(±3) %
same,decrease of pre-miR-18a levels,"pri-miR-17-92 cluster [2]; MDA-MB-231, 7 at 500 nM",19(±4) %
same,decrease of pre-miR-20a levels,"pri-miR-17-92 cluster [2]; MDA-MB-231, 7 at 500 nM",36(±3) %
same,pri-miR-17/92 levels,"pri-miR-17-92 cluster [2]; MDA-MB-231, 7 at 500 nM",unchanged
same,"levels of mature miR-17, miR-18a and miR-20a","pri-miR-17-92 cluster [2]; MDA-MB-231, treatment with 7","reduced the levels of mature miR-17, miR-18a, and miR-20a dose dependently"
same,levels of the other three mature miRNAs in the cluster,"pri-miR-17-92 cluster [2]; MDA-MB-231, treatment with 7",no effect
same,mature and pre-miRNA levels of the pre-miRNAs that bind 2,pri-miR-17-92 cluster [3],reduced levels
same,pri-miR-17/92 levels,pri-miR-17-92 cluster [3],No effect
same,cellular uptake,Cellular uptake analysis,taken up to a similar extent as 2
